pIC50: −log10 of the molar value.

Data set [1] in a line: Cassette Dosing and Serum Analysis for Determination of Bioavailability. Format: in vivo, rat. The note with it: average AUC 0→12 h, male Sprague Dawley rats, single oral cassette dose (6 compounds, total dose 10 mg/kg), plasma. On the procedure:
The cassette included 5 test articles and a standard compound, for a total dose of 10 mg/kg. Each compound/test article was converted to the sodium salt with equimolar 1 N NaOH and dissolved in water at 2 mg/mL. The cassette was prepared by mixing equal volumes of each of the six solutions. The cassette dosing solution was mixed well and then the pH was adjusted to 7.5–9. The dosing solution was prepared the day before the study and stirred overnight at room temperature.
Male Sprague Dawley (SD) rats from Charles River Laboratories, 6–8 weeks old were used in this screen. Rats were quarantined for at least one day and had continuous access to food and water. On the night before the administration of the cassette, the rats were fasted for approximately 16 h.
Four SD rats were assigned in each cassette. A single dose of the dosing solution was administered orally to each rat. The dosing volume (5 mL/kg) and time were recorded and rats were fed 2 h after dosing.
Blood samples were collected via cardiac puncture at the following time points: 4 h, 8 h and 12 h. Immediately prior to blood collection, rats were anesthetized with CO2 gas within 10–20 seconds. After the 12-h samples were collected, the rats were euthanized via CO2 asphyxiation followed by cervical dislocation.
Blood samples were kept in heparinized microtainer tubes under sub-ambient temperature (4° C.) before they were processed. Blood samples were centrifuged (10000 rpm for 5 minutes) and plasma samples were removed and stored in a −20° C. freezer until analyzed for drug levels. Drug levels in the plasma were analyzed using the following protocol for direct plasma precipitation.
The in vivo plasma samples were prepared in a 1.5 mL 96-well plate, by adding, in order, 100 μL of the test plasma, 150 μL of methanol, followed by vortexing for 10–20 seconds. 150 μL of 0.05 ng/μL of an Internal Standard in acetonitrile were added and vortexed for 30 seconds.
The standard curve samples were prepared in a 1.5 mL 96-well plate, by adding, in order, 100 μL of control mouse plasma, followed by 150 μL of methanol and vortexing for 10–20 seconds. 150 μL of 0.05 ng/μL of an Internal Standard in acetonitrile were added and vortexed for 30 seconds. The samples were spiked with 0–200 ng (10 concentrations) of the compound of interest in 50% methanol to obtain a standard curve range of 0.5 ng/mL–2,000 ng/mL. Again, the sample was vortexed for 30 seconds.
The samples were then spun for 20–30 minutes at 3000 rpm in an Eppendorf microfuge before 80–90% of supernatant was transferred into a clean 96-well plate. The organic solvent was then evaporated until the samples were dry (under N2 at 40° C./30–60 min (Zymark Turbovap)).
The residue was then dissolved in […] mobile phase (50% CH3OH/0.1% TFA). LC/MS/MS was then run using a PE-Sciex API-3000 triple quadurpole mass spectrometer (SN0749707), Perkin-Elmer, Series200auto-sampler, and shimadzu 10A pump. Acquisition was done with PE-Sciex Analyst (v1.1) and data analysis and quantification were accomplished using PE-Sciex Analyst (v1.1). A 5–50 μL sample volume was injected onto a reverse phase ThermoHypersil DASH-18 column (Keystone 2.0×20 mm, 5 μm, PN: 8823025-701) using a mobile phase of 25% CH3OH, 0.1% TFA-100% CH3OH, 0.1% TFA. The run time was about 8 minutes at a flow rate of about 300 μL/minutes.
The Area Under the Curve (AUC) was calculated using the linear trapezoidal rule from t=0 to the last sampling time tx (see Handbook of Basic Pharmacokinetics, Wolfgang A. Ritschel and Gregory L. Kearns, 5th ed, 1999). AUC^0→tx=S((Cn+Cn+1)/2))·(tn+1−tn)[(μg/mL)h]

The target of another data set is T1, α4β1 integrin (Homo sapiens, UniProt P05556+P13612).
T1 construct: Jurkat™ cells (maintained in log phase growth) were labeled with Calcein AM; endogenous in cells; host or cells: Jurkat cells
T1 sequence (P13612 34-1032): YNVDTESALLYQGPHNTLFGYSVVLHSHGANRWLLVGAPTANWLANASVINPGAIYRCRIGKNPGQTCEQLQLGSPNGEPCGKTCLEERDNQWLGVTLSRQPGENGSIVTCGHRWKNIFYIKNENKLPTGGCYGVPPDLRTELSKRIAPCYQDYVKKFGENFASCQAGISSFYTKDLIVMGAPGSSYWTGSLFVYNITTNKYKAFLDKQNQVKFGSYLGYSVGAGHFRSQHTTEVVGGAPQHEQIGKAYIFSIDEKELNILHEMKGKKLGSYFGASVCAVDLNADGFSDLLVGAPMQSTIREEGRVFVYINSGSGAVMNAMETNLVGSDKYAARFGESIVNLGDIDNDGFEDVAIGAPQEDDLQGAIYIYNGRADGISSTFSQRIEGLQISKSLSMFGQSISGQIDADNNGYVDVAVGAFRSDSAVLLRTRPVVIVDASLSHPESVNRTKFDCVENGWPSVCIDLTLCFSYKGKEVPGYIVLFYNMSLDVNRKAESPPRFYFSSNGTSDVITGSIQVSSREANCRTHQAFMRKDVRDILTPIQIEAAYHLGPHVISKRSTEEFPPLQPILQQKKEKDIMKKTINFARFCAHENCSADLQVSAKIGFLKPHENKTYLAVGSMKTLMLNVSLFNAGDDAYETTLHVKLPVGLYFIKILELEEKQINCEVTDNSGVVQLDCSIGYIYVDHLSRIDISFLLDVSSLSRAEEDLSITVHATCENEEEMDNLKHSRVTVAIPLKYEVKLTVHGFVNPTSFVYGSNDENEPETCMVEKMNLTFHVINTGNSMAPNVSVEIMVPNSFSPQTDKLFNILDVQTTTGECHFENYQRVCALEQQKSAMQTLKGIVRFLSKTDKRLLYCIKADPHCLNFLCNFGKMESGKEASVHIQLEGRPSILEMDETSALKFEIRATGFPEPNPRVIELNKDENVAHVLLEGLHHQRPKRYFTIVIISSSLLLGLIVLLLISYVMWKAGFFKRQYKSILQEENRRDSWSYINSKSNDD
T1 sequence (P05556 21-798): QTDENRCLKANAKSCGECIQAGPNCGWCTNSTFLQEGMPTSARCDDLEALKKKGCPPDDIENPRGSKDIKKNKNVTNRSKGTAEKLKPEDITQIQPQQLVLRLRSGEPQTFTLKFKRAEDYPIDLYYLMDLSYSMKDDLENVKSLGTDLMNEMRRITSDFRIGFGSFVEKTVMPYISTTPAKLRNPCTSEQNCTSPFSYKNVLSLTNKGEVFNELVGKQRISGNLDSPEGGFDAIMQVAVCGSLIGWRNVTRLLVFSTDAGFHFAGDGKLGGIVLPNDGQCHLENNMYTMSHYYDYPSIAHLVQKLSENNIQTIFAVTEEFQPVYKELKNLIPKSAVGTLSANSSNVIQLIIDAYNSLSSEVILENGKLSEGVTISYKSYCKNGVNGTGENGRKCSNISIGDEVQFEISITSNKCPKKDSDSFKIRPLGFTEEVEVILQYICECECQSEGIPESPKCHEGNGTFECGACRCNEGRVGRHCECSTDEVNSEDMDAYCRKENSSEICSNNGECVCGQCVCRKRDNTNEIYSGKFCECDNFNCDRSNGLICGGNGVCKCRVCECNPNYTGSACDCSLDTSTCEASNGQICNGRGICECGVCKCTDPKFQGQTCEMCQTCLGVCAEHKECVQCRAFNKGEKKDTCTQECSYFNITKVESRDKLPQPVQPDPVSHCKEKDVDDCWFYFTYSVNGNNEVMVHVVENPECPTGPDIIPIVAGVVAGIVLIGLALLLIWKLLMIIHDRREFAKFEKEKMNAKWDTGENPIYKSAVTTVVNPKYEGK
Put plainly: α4β1 Integrin Adhesion Assay: Jurkat Cell Adhesion to Human Plasma Fibronectin. Format: cell-based. The note with it: Jurkat cells. On the procedure:
96 well plates (Costar 3590 EIA plates) were coated with human fibronectin (Gibco/BRL, cat #33016–023) at a concentration of 10 μg/mL overnight at 4° C. The plates were then blocked with a solution of bovine serum albumin (BSA; 0.3%) in saline. Jurkat™ cells (maintained in log phase growth) were labeled with Calcein AM according to the manufacturer's instructions, and suspended at a concentration of 2×10^6 cells/mL in Hepes/Saline/BSA. The cells were then exposed to test and control compounds for 30 minutes at room temperature before transfer to individual wells of the fibronectin coated plate. Adhesion was allowed to occur for 35 minutes at 37° C. The wells were then washed by gentle aspiration and pipetting with fresh saline. Fluorescence associated with the remaining adherent cells was quantified using a fluorescence plate reader at EX 485/EM 530.
Cell cultures were prepared by first splitting the stationary phase Jurkat™ cells at 1:10 on day one, and 1:2 on day two to perform assay on day 3. The cells split 1:10 on day one were split 1:4 on day 3 for a day 4 assay.
The assay plates were prepared by first making a working solution of Gibco/BRL Human Fibronectin (cat #33016-023) in PBS++, at 10 μg/mL. A Costar 3590 EIA plate was then coated with 50 μL/well for 2 hours at room temperature (thought it can also be left overnight at 4° C.). Finally the plate was asperated and blocked with Hepes/Saline Buffer, 100 μL/well, for 1 hour at RT followed by washing 3× with 150 μL of PBS++.
Compound dilutions were accomplished by preparing 1:3 serial dilutions of compounds as follows. For each plate (4 compounds/plate) 600 μL were added to 4 Bio-Rad Titertubes in a Titertube rack. […] Using Falcon Flexiplates, 100 μL of Hepes/Saline buffer or human serum were added to rows B through G. A multi-channel pipetter set to 180 μL was used to with four tips spaced evenly the pipetter. Each set of four tubes was mixed 5 times and 180 μL of 2× compound was transferred to the first column of each compound dilution in Row B, leaving Row A empty. 180 μL were added to the other wells in Row A. Serial dilutions were performed down the plate by transferring 50 μL to the next dilution and mixing 5 times, changing tips each time after mixing.
A 20 μg/mL solution in Hepes/Saline buffer or human serum, of 21/6 antibody was the positive control and was set aside in a reagent trough to add to cell suspension plate.
The cell staining was accomplished by first harvesting the log-phase Jurkat™ cells by centrifugation in 50 mL tubes (1100 rpm for 5 minutes). The cells were resuspended in 50 mL PBS++, spun, and resuspend in 20 mL PBS++. The cells were stained by adding 20 μL of Calcein AM for 30 minutes RT. The volume was brought to 50 mL with Hepes/Saline buffer and the cells were counted, spun, and resuspend to 2×10^6 cells/mL in Hepes/Saline buffer or human serum.
The compounds were incubated using the following procedure. In a new flexiplate, 65 μL of stained cells were added to Rows B through H. Then 65 μL of 2× compounds were added to the appropriate rows following the plate setup and mixed three times. 65 μL of 2×-21/6 antibody were added to Row H and mixed 3×. Finally the plate was incubated at room temperature for 30 minutes.
Fibronectin adhesion was measured using a fluorescent plate reader at EX 485/EM 530 after the following work up procedure. After incubation, the cells were mixed three times and 100 μL were transfered to the Fibronectin coated plates and incubated at 37° C. for about 35 minutes. Each plate was washed, row by row, by gently pipetting 100 μL of RT. PBS++ down the sides of the wells and turning the plate 90 degrees to aspirate. This procedure was repeated for a total of 3 washes. Each well was filled with 100 μL after washing by pipetting down the side of the well.
An IC50 value was calculated for each compound, both in the presence of the human serum and in the absence of human serum.

The pIC50 is the negative decadic logarithm of the IC50, by convention in mol/L. Turning to `CCN(CC)c1ncc(N(CC)S(=O)(=O)c2ccc(F)cc2)c(N[C@@H](Cc2ccc(OC(=O)N3CCCCC3)cc2)C(=O)O)n1` [Example 6, N-(2-[N′,N′-diethylamino]-5-[N″-(4-fluorophenylsulfonyl)-N″-ethylamino]pyrimidin-4-yl)-4′-(piperidin-1-ylcarbonyloxy)-L-phenylalanine], the AUC in data set [1] is reported as 0.5125 (μg/mL)h. Besides, the pIC50 on α4β1 integrin (containing human serum) is 6.15; against α4β1 integrin (without the human serum), 8.33.

Consider `CCN(CC)c1ncc(N(CC)S(=O)(=O)c2ccc(F)cc2F)c(N[C@@H](Cc2ccc(OC(=O)N3CCC3)cc2)C(=O)O)n1` [Example 14, N-(2-[N′,N′-diethylamino]-5-[N″-(2,4-difluorophenylsulfonyl)-N″-ethylamino]pyrimidin-4-yl)-4′-(azetidin-1-ylcarbonyloxy)-L-phenylalanine], for which the AUC in data set [1] is recorded as 0.3566 (μg/mL)h. Besides, the pIC50 at α4β1 integrin (containing human serum) was 7.29; at α4β1 integrin (without the human serum), 8.47.

For `CCN(CC)c1ncc(N(CC)S(=O)(=O)c2ccc(Cl)cc2)c(N[C@@H](Cc2ccc(OC(=O)N3CCCC3)cc2)C(=O)O)n1` [Example 1, N-(2-[N′,N′-diethylamino]-5-[N″-(4-chlorophenylsulfonyl)-N″-ethylamino]pyrimidin-4-yl)-4′-(pyrrolidin-1-ylcarbonyloxy)-L-phenylalanine], the AUC in data set [1] was 14.798 (μg/mL)h. For the same molecule, the pIC50 is 6.39 against α4β1 integrin (containing human serum) and 7.77 against α4β1 integrin (without the human serum).

As to `CCN(CC)c1ncc(N(CC)S(=O)(=O)c2ccc(F)cc2)c(N[C@@H](Cc2ccc(OC(=O)N3CCC3)cc2)C(=O)O)n1` [Example 7, N-(2-[N′,N′-diethylamino]-5-[N″-(4-fluorophenylsulfonyl)-N″-ethylamino]pyrimidin-4-yl)-4′-(azetidin-1-ylcarbonyloxy)-L-phenylalanine], in data set [1], the AUC is 0.8979 (μg/mL)h. Further, the pIC50 was 7.06 against α4β1 integrin (containing human serum) and 8.79 against α4β1 integrin (without the human serum).

For the molecule `CCN(CC)c1ncc(N(C)S(=O)(=O)c2ccc(F)cc2F)c(N[C@@H](Cc2ccc(OC(=O)N3CCC3)cc2)C(=O)O)n1` [Example 13, N-(2-[N′,N′-diethylamino]-5-[N″-(2,4-difluorophenylsulfonyl)-N″-methylamino]pyrimidin-4-yl)-4′-(azetidin-1-ylcarbonyloxy)-L-phenylalanine], the AUC in data set [1] was 1.283 (μg/mL)h. In addition, the pIC50 was 7.05 against α4β1 integrin (containing human serum) and 8.61 on α4β1 integrin (without the human serum).

Turning to `CCN(CC)c1ncc(N(C)S(=O)(=O)c2ccc(Cl)cc2)c(N[C@@H](Cc2ccc(OC(=O)N3CCC3)cc2)C(=O)O)n1` [Example 9], the AUC in data set [1] was 2.0774 (μg/mL)h. Besides, the pIC50 against α4β1 integrin (containing human serum) was 6.68; against α4β1 integrin (without the human serum) it was 8.49.

With `C#CCN(c1cnc(N(CC)CC)nc1N[C@@H](Cc1ccc(OC(=O)N2CCCC2)cc1)C(=O)O)S(=O)(=O)c1ccc(F)cc1F` [Example 16, N-(2-[N′,N′-diethylamino]-5-[N″-(2,4-difluorophenylsulfonyl)-N″-propargylamino]pyrimidin-4-yl)-4′-(pyrrolidin-1-ylcarbonyloxy)-L-phenylalanine], the AUC in data set [1] is reported as 23.808 (μg/mL)h. Moreover, the results for the pIC50 at α4β1 integrin (containing human serum) and on α4β1 integrin (without the human serum) were 6.25 and 7.86, respectively.

Turning to `C#CCN(c1cnc(N(CC)CC)nc1N[C@@H](Cc1ccc(OC(=O)N2CCC2)cc1)C(=O)O)S(=O)(=O)c1ccc(F)cc1F` [Example 17, N-(2-[N′,N′-diethylamino]-5-[N″-(2,4-difluorophenylsulfonyl)-N″-propargylamino]pyrimidin-4-yl)-4′-(azetidin-1-ylcarbonyloxy)-L-phenylalanine], the AUC in data set [1] is 0.8628 (μg/mL)h. Moreover, the pIC50 against α4β1 integrin (containing human serum) is 6.90; against α4β1 integrin (without the human serum), 8.28.

Turning to `CCN(CC)c1ncc(N(CC)S(=O)(=O)c2ccc(Cl)cc2)c(N[C@@H](Cc2ccc(OC(=O)N3CCC3)cc2)C(=O)O)n1` [Example 10, N-(2-[N′,N′-diethylamino]-5-[N″-(4-chlorophenylsulfonyl]-N″-ethylamino]pyrimidin-4-yl)-4′-(azetidin-1-ylcarbonyloxy)-L-phenylalanine], the AUC in data set [1] was 2.1113 (μg/mL)h. The pIC50 was 7.08 against α4β1 integrin (containing human serum) and 8.39 on α4β1 integrin (without the human serum).

The values are drawn from US7026328B2, “Heterocyclic compounds which inhibit leukocyte adhesion mediated by α4 integrins” (Elan Pharmaceuticals, Inc., priority 2002, dated 2006).
